In patent US11179348B2, “Combination comprising pterostilbene for the treatment of cancer” (FUNDACIÓN UNIVERSIDAD CATÓLICA DE VALENCIA SAN VICENTE …, priority 2015, dated 2021):

Key:
[1] = tested on: AtT-20 pituitary corticotroph tumor cells; test: ACTH production and POMC expression in AtT-20 cells; format: cell-based, mouse; conditions: pterostilbene 15 μM
Procedure: FIG. 3. Pterostilbene bioavailability in brain and the pituitary gland, and its effect on ACTH synthesis and POMC expression in AtT-20 cells. […] (B) Effect of pterostilbene on ACTH production by AtT-20 cells in a 24 h-period (measured between 24-48 h or between 48-72 h). […] After the 30 min period, culture flasks were washed out (three times with PBS) and the medium was renewed (controls received identical treatment).
(§1) Plasma levels of ACTH (Calbiotech, Inc., Spring Valley, Calif.), corticosterone (Kamiyama Biomedical Co., Seattle, Wash.), and NORA (IBL, Hamburg, Germany) were quantified by ELISA according to the instructions of the suppliers.
RT-PCR and detection of mRNA was performed as described above. For Western blotting (see also above) POMC mouse monoclonal antibody (clone 2B2) from Origen (Rockville, Md.) were used.

corticosterone = test: Plasma corticosterone levels (ELISA) in tumor-bearing mice; format: in vivo
From the text: Measurement of ACTH, Corticosterone, and NORA Levels.
as §1

[2] = tested on: HT-29 colorectal carcinoma; test: In vivo growth of HT-29 colorectal cancer xenografts; set-up: species or system human; conditions: HT-29, day 21
A549 cells = test: GSH levels and glutathione- and oxidative stress-related enzyme activities in A549 cells growing in vivo; set-up: species or system human; conditions: A549, in vivo Pter, day 35
Procedure: (§2) To measure enzyme activity, isolated tumor cells were homogenized in 0.1 M phosphate buffer (pH 7.2) at 4° C. GCL and GSS activities were measured as described previously (Obrador, E. et al. Hepatology 35, 74-81 (2002)). GPX (selenium dependent) activity was measured as described by Flohé and Gunzler (Flohe, L. & Gunzler, W. A. Methods Enzymol 105, 114-121 (1984)) using H2O2 as a substrate. GSR activity was determined as described by Akerboom and Sies (Akerboom, T. P. et al, Bull Eur Physiopathol Respir 17 Suppl, 221-227 (1981)). GGT activity was measured as described previously (Obrador, E. et al. Hepatology 35, 74-81 (2002)). GST activity was measured using an assay kit from Sigma. TXNRD activity, defined by the concentration of sodium-lipoate (disulfide) reduced to dehydrolipoate (dithiol) per milligram protein, was measured as previously described (Javvadi, P. et al. Cancer Res 70, 1941-1950 (2010)). SOD activity was measured as described by Flohé and Otting (Flohe, L. & Otting, F. Methods Enzymol 105, 93-104 (1984).) using 2 mM cyanide in the assay medium to distinguish mangano-type enzyme (SOD2) from the cuprozinc type (SOD1). CAT activity was analyzed as described by Aebi (Aebi, H. Methods Enzymol 105, 121-126 (1984)). NOX activity was measured by chemiluminescence following the methodology of Wind et al. (Wind, S. et al. Comparative pharmacology of chemically distinct NADPH oxidase inhibitors. Br J Pharmacol 161, 885-898 (2010)). Protein concentration was determined with the Pierce BCA protein assay (Fisher Scientific, Waltham, Mass.).
(§3) GSH, GSSG, NADP^+ and NADPH Determination.
(§4) GSH and GSSG were determined, following procedures previously described (Obrador, E. et al. PLoS One 9, e96466 (2014)), by LC/MS using the same equipment described above for pterostilbene determination. Cell processing was performed according to published methodology, where rapid N-ethylmaleimide derivatization was used to prevent GSH auto-oxidation (Asensi, M. et al. Anal Biochem 217, 323-328 (1994)). NADP^+ and NADPH were quantitated using an assay kit from Sigma (St. Louis, Mo.).
(§5) Isolation of Tumor Cells from Mouse Xenografts Using Enzymatic Digestion and a double Ficoll gradient.
(§6) To maximize the amount of isolated cells, avoiding the use of RFP-transfected cells and subsequent laser microdissection, an alternative methodology was set up. To maximize cell yield and viability the following combination of enzymes was used: collagenase III (200 U/ml; Sigma-Aldrich), DNase I (200 U/ml; Sigma-Aldrich) and trypsin (5 mg/ml; Invitrogen), and a non-enzymatic dissociation buffer (NEDB, Invitrogen). Briefly, mice were killed, and tumors were removed (avoiding skin, muscle and fat) into cold culture media and processed immediately. The tumors were minced into 1-3 mm fragments, which were then incubated with the dissociation solution (see above) for 30 min at 37° C. The tumor fragments were mixed up and down every 10 min using a […] micropipette with a tip cut to a diameter adapted to tissue fragment size. After each incubation period, the fragments were filtered through a […] nylon mesh cell strainer (BD Biosciences, San Diego, Calif., USA). The released cells were centrifuged at 1200 r.p.m. for 2 min and stored in cold CO2-independent medium with 30% FCS at […]. Fresh dissociation solution was added to the remaining tissue fragments for 30 min. Dissociation was stopped when no additional cells were released. The fragments were pushed through a sieve and all cells from all incubation periods were pooled and counted.
(§7) The dissociated cells were layered onto a double Ficoll gradient (Histopaque; Sigma-Aldrich; densities 1.077 and 1.119) and spun at 700 g for 30 min at room temperature. Cells removed from both interfaces were pooled and washed two times in CO2-independent medium and stored at 4° C. Debris and red blood cell elimination was improved with the dual-density gradient. […]

PC-3 cells = test: GSH levels and glutathione- and oxidative stress-related enzyme activities in PC-3 cells growing in vivo; set-up: species or system human; conditions: PC-3, in vivo Pter, day 21
Procedure: as §2, §3, §4, §5, §6, §7

Q: With `COc1cc(/C=C/c2ccc(O)cc2)cc(OC)c1` [Pter, trans-3,5-dimethoxy-4′-hydroxystilbene] as the molecule, how does the “ACTH production by AtT-20 cells” value ([1]; 30 min every 24 h, CRH 100 nM) read?
A: The value was “decreases”.

Q: What about the “POMC expression and levels in AtT-20 cells” value ([1]; 72 h of culture) of the same molecule?
A: The value was “decreased”.

Q: And the CRC (corticosterone; A549-bearing mice, day 35, 12 h circadian time)?
A: Its CRC is 61 ± 17 ng/mL plasma.

Q: And the CRC (corticosterone; A2058-bearing mice, day 35, 12 h circadian time)?
A: The CRC was 123 ± 29 ng/mL plasma.

Q: And the CRC (corticosterone; AsPC-1-bearing mice, day 28, 12 h circadian time)?
A: Its CRC is 217 ± 33 ng/mL plasma.

Q: What about the CRC (corticosterone; B16-F1-bearing mice, day 15, 12 h circadian time) of the same molecule?
A: Its CRC is 187 ± 36 ng/mL plasma.

Q: What about the CRC (corticosterone; BxPC-3-bearing mice, day 35, 12 h circadian time) of the same molecule?
A: The CRC was 88 ± 21 ng/mL plasma.

Q: What about the CRC (corticosterone; Caco-2-bearing mice, day 28, 12 h circadian time) of the same molecule?
A: The CRC was 106 ± 23 ng/mL plasma.

Q: What about the CRC (corticosterone; HT-29-bearing mice, day 21, 12 h circadian time) of the same molecule?
A: The CRC was 126 ± 36 ng/mL plasma.

Q: What about the CRC (corticosterone; HepG2-bearing mice, day 35, 12 h circadian time) of the same molecule?
A: Its CRC is 187 ± 50 ng/mL plasma.

Q: What about the CRC (corticosterone; LNCaP-bearing mice, day 49, 12 h circadian time) of the same molecule?
A: The CRC was 77 ± 15 ng/mL plasma.

Q: What about the CRC (corticosterone; MCF-7-bearing mice, day 28, 12 h circadian time) of the same molecule?
A: The CRC was 75 ± 20 ng/mL plasma.

Q: And the CRC (corticosterone; MDA-MB-231-bearing mice, day 35, 12 h circadian time)?
A: The CRC was 84 ± 24 ng/mL plasma.

Q: And the CRC (corticosterone; MeWo-bearing mice, day 35, 12 h circadian time)?
A: The CRC was 87 ± 17 ng/mL plasma.

Q: What about the CRC (corticosterone; MelJuso-bearing mice, day 35, 12 h circadian time) of the same molecule?
A: Its CRC is 80 ± 15 ng/mL plasma.

Q: What about the CRC (corticosterone; PC-3-bearing mice, day 21, 12 h circadian time) of the same molecule?
A: Its CRC is 145 ± 30 ng/mL plasma.

Q: What about the CRC (corticosterone; SK-OV-3-bearing mice, day 49, 12 h circadian time) of the same molecule?
A: Its CRC is 64 ± 18 ng/mL plasma.

Q: What about the corticosterone in plasma (corticosterone; melanoma-bearing mice, pterostilbene 30 mg/kg every 48 h (FIG. 2A)) of the same molecule?
A: The corticosterone in plasma was “to practically control values”.

Q: And the Tumor vol. [2]?
A: Its Tumor vol. is 758 ± 214 mm^3.

Q: What about the CAT (A549 cells) of the same molecule?
A: Its CAT is 0.3 ± 0.01 mU/10^6 cells.

Q: What about the GCL (A549 cells) of the same molecule?
A: The GCL was 39 ± 16 mU/10^6 cells.

Q: What about the GSH (A549 cells) of the same molecule?
A: The GSH was 4.7 ± 1.5 nmol/10^6 cells.

Q: And the GSS (A549 cells)?
A: Its GSS is 3.9 ± 1.0 mU/10^6 cells.

Q: What about the GSSG (A549 cells) of the same molecule?
A: The GSSG was 0.2 ± 0.07 nmol/10^6 cells.

Q: And the SOD1 (A549 cells)?
A: The SOD1 was 0.5 ± 0.1 U/10^6 cells.

Q: And the SOD2 (A549 cells)?
A: Its SOD2 is 0.04 ± 0.01 U/10^6 cells.

Q: And the CAT (PC-3 cells)?
A: The CAT was 0.3 ± 0.1 mU/10^6 cells.

Q: And the GCL (PC-3 cells)?
A: The GCL was 27 ± 9 mU/10^6 cells.

Q: What about the GSH (PC-3 cells) of the same molecule?
A: The GSH was 2.4 ± 1.1 nmol/10^6 cells.

Q: And the GSS (PC-3 cells)?
A: The GSS was 2.7 ± 0.7 mU/10^6 cells.

Q: And the GSSG (PC-3 cells)?
A: Its GSSG is 0.05 ± 0.02 nmol/10^6 cells.

Q: And the SOD1 (PC-3 cells)?
A: Its SOD1 is 0.05 ± 0.01 U/10^6 cells.

Q: What about the SOD2 (PC-3 cells) of the same molecule?
A: The SOD2 was 0.01 ± 0.005 U/10^6 cells.
